According to patent publication US20070059242A1, “METHODS TO IDENTIFY THERAPEUTIC AGENTS” (priority 2005, published 2007):

Experiments:
[1] = tested on: J774A.1 macrophages; test: Uptake and localization in macrophages by fluorescence microscopy; format: cell-based, murine; details: 50 μM dansyl derivative, 5 min to 1 h; not complexed with LDL
Protocol: J774A.1 cells were plated in 8-well chambered slides (Nalge Nunc International). Cells were gently washed twice with PBS, pH 7.4 before 5 min or 1 h exposure to 50 μM dansyl derivative of cholesterol ozonation product 5d or 5e, dansyl cholesterol derivative 9c or 9d, or dansyl hydrazine diluted in media without FCS (0.05% v/v final DMSO concentration). [drawing 28] Media was removed by aspiration and cells were fixed immediately in 95% ice cold methanol for 5 min. Cells were mounted in glycerol containing Antifade reagent (Molecular Probes). Fluorescence images were documented using DeltaVision Deconvolution microscope (API, Issaquah WA) equipped with a Photometrics CH350L liquid cooled CCD camera attached to an Olympus IX—70 inverted microscope. […] All images were deconvolved using constrained iterative algorithms (10 iterations) of DeltaVision software (softWoRx, v2.5). The deconvolved images were subsequently processed using softWoRx, v2.5.
In some experiments, murine macrophage RAW 264.7 (ECACC 91062702) cells were grown in RPMI (Gibco) with 10% FCS at 37° C. with 5% CO2. For fluorescence imaging, cells were incubated on cover slips in 6-well chambered plates (Costar) for 12 h, gently washed 3 times in PBS at pH 7.4, and incubated with 50 μM dansyl derivative of cholesterol ozonation product 5d or 5e, dansyl cholesterol derivative 9c or 9d, in RPMI with 10% FCS for 5, 15, 30, and 60 min. A solution of the dansyl derivative was then added in DMSO [final DMSO, 0.05% (v/v)]. Media was removed by aspiration, and cells were washed twice with PBS, followed by fixing in paraformaldehyde (3.7% in PBS) for 10 min. Cover slips were mounted in MOWIOL 4-88 (Calbiochem). Microscopy was performed using an inverted Zeiss Axioscope 2 Plus fluorescence microscope, and images were obtained with a Zeiss Axiocam digital camera using Axiovision software (version 3.1). The data were collected using a 63× oil immersion lens and DAPI filter (excitation 360/emission 460), and images were processed with Axiovision software and Adobe software (Photoshop 6.0).

[2] = tested on: THP-1 monocytes; test: Monocyte morphology changes (differentiation into macrophages); format: cell-based, human; details: 12.5 or 25 μM, 7 days
Protocol: THP-1 monocytes in suspension were plated in 8-well chambered slides. […] Media containing appropriate treatment compounds was replaced after 4 days. […]

[3] = tested on: leukocyte cell lines; test: Cytotoxicity to leukocyte cell lines (similar procedures); format: cell-based
Protocol: (§1) Cytotoxicity assays. WI-L2 human B-lymphocyte line, HAAE-1 human abdominal aortic endothelial line, MH-S murine alveolar macrophage line, and J774A.1 murine tissue macrophage line were obtained from the ATCC. Human aortic endothelial cells (HAEC) and human vascular smooth muscle cells (VSMS) were obtained from Cambrex Bio Science. Jurkat E6-1T-lymphocytes were kindly provided by Dr. J. Kaye (The Scripps Research Institute). Cells were cultured in ATCC-recommended media with 10% fetal calf serum. Cells were incubated in a controlled atmosphere at 37° C., with 5 or 7% CO2. For lactate dehydrogenase (LDH) release assays, adherent cells were harvested either by addition of 0.05% trypsin/EDTA or by scraping. The cells obtained were seeded onto 96-well microtiter plates (25,000 cells/well) and allowed to recover for 24-48 h. Cells were washed gently and media replaced with fresh media containing 5% fetal calf serum. […] Cytotoxicity was then determined by measuring lactate dehydrogenase (LDH) release from cells in culture. […] 100% Cytotoxicity was defined as the maximum amount of LDH released by dead cells as shown by trypan blue exclusion, or the highest amount of LDH detected upon lysis of cells by 0.9% Triton X-100. The IC50 values were determined by comparison of the raw duplicate data for concentration versus cytotoxicity (%) to non-linear regression analysis (Hill plot) using Graphpad v3.0 software for Macintosh.

[4] = tested on: WI-L2 human B-lymphocyte line; test: LDH release cytotoxicity assay, WI-L2; format: cell-based; details: B-cell (WI-L2) cell line, concentration range of FIG. 6A
Protocol: as §1
The following cell lines were employed in this study: a human B-lymphocyte (WI-L2) described in Levy et al., Cancer 22, 517 (1968); a T-lymphocyte cell line (Jurkat E6.1) described in Weiss et al., J. Immunol. 133, 123 (1984); a vascular smooth muscle cell line (VSMC) and an abdominal aorta endothelial (HAEC) cell line described in Folkman et al., Proc. Natl. Acad. Sci. U.S.A. 76, 5217 (1979); a murine tissue macrophage (J774A.1) described in Ralph et al., J. Exp. Med. 143, 1528 (1976); and an alveolar macrophage cell line (MH-S) described in Mbawuike et al., J. Leukoc. Biol. 46, 119 (1989).

[5] = tested on: T-lymphocyte cell line (Jurkat E6.1); test: LDH release cytotoxicity assay, Jurkat; format: cell-based; details: T-cell (Jurkat) cell line, concentration range of FIG. 6B
Protocol: as §1, with “h.” for “h. Cells were washed gently and media replaced with fresh media containing 5% fetal calf serum.”, “Macintosh. […]” for “Macintosh.”

[6] = tested on: E-selectin; test: Endothelial adhesion molecule expression ELISA, E-selectin; format: cell-based, human; details: HAAE-1, not complexed with LDL
Protocol: (§2) Endothelial cell surface adhesion molecule expression was measured by ELISA, using anti-human CD54 (ICAM-1), CD106 (VCAM-1) and CD62E (E-Selectin) antibodies (Leinco Technologies, Inc., St. Louis, Mo.). The ELISA method was modified from previously described procedures.
(§3) Cells were then incubated with antibodies to VCAM-1, E-selectin, or ICAM-1 diluted 1:400 in PBS containing 5% FCS at 37° C. for 30 min. Wells were washed two times with PBS, then incubated with horseradish peroxidase (HRP)-conjugated goat anti-mouse IgG (Southern Biotechnology Associates, Birmingham, Ala., USA) in PBS/5% FCS at 37° C. for 30 min. The wells were washed four times with PBS, then incubated with H2O2/3,3′,5,5′-tetramethyl-benzidine peroxidase substrate (Pierce Chemical, Rockford, Ill., USA) for 30 min in the dark. The reaction was stopped by adding 25 μl of 8 N H2SO4, and the plates read on a microplate reader, blanking on wells stained with only secondary antibody. Each assay was performed in triplicate and the data are reported as the mean±SEM as a percentage of the expression level of the vehicle. To study the effect of cholesterol ozonation product 5a concentration (5-50 μM) on E-selectin expression, the assay was performed in an identical fashion as described above, with each point being the mean±SEM of at least duplicate measurements.

[7] = tested on: VCAM-1; test: Endothelial adhesion molecule expression ELISA, VCAM-1; format: cell-based, human; details: HAAE-1, not complexed with LDL
Protocol: as §2, §3

[8] = tested on: ICAM-1; test: Endothelial adhesion molecule expression ELISA, ICAM-1; format: cell-based, human; details: HAAE-1, not complexed with LDL
Protocol: as §2, §3

`C[C@H](CCCC(=O)NS(=O)(=O)c1cccc2c(N(C)C)cccc12)[C@H]1CCC2C3C(CC[C@@]21C)C1(C)CC[C@H](O)CC1(O)[C@@H]3C=O` (stereo partly drawn) [5e] was tested, and the “uptake and localization in macrophages” value [1] was “initial punctate cytosolic accumulation”.

In the case of `CC(C)CCC[C@@H](C)[C@H]1CC[C@H]2[C@@H]3C(=O)C=C4C[C@@H](O)CC[C@]4(C)[C@H]3CC[C@]12C` [7-KC, 7-ketocholesterol, reference compound], the “THP-1 cell adherence (differentiation into macrophages)” value [2] is reported as “began to adhere after 4 days”.

For `CC(C)CCC[C@@H](C)[C@H]1CCC2C3C(C=O)=C4C=CCC[C@]4(C)C3CC[C@@]21C` (stereo partly drawn) [12a, B-norcholest-3,5-diene-6-carboxaldehyde], the “cytotoxic to leukocyte cell lines” value [3] was “cytotoxic”.

`CC(C)CCC[C@@H](C)[C@H]1CCC2C3C(CC[C@@]21C)[C@@]1(C)CCC=C[C@@]1(O)[C@@H]3CO` (stereo partly drawn) [7c] was tested, and the “cytotoxic to leukocyte cell lines” value [3] was “cytotoxic”.

In the case of `CC(C)CCC[C@@H](C)[C@H]1CCC2C3C(CC[C@@]21C)[C@@]1(C)CCC=C[C@@]1(O)[C@@H]3C=O` (stereo partly drawn) [7a, 5β-Hydroxy-B-norcholest-3-ene-6β-carboxaldehyde], the “cytotoxic to leukocyte cell lines” value [3] is reported as “cytotoxic”.

`CC(C)CCC[C@@H](C)[C@H]1CCC2[C@H](CC=O)C([C@@]3(C)CCCCC(=O)O3)CC[C@@]21C` (stereo partly drawn) [11a] was tested, and the “cytotoxic to leukocyte cell lines” value [3] was “cytotoxic”.

`CC(C)CCC[C@@H](C)[C@H]1CC[C@H]2[C@@H]3CC=C4C[C@@H](O)CC[C@]4(C)[C@H]3CC[C@]12C` [compound 3, cholesterol, reference compound] was tested, and the cytotoxicity [4] was “No cytotoxicity”, the cytotoxicity [5] was “No cytotoxicity” and the “selectin (E-selectin) expression” value [6] was “no effects”. The “integrin (VCAM-1) expression” value [7] was “no effects”, the “integrin (ICAM-1) expression” value [8] was “no effects” and the “THP-1 cell adherence (differentiation into macrophages)” value [2] was “induced no cell adherence”.

For `CC(C)CCC[C@@H](C)[C@H]1CCC2[C@H](CC(=O)O)C([C@@]3(C)CC[C@H](O)CC3=O)CC[C@@]21C` (stereo partly drawn) [10a], the “cytotoxic to leukocyte cell lines” value [3] was “cytotoxic”.

With `CC(C)CCC[C@@H](C)[C@H]1CCC2C(CC=O)C([C@@]3(C)CCC=CC3=O)CC[C@@]21C` (stereo partly drawn) [6a, 5-Oxo-5,6-secocholest-3-en-6-al] the “cytotoxic to leukocyte cell lines” value [3] was “cytotoxic”.

In the case of `C[C@H](CCCC(=O)NS(=O)(=O)c1cccc2c(N(C)C)cccc12)[C@H]1CCC2C3CC=C4C[C@@H](O)CCC4(C)C3CC[C@@]21C` (stereo partly drawn) [9d, reference compound], the “uptake and localization in macrophages” value [1] is reported as “minimal fluorescence”.
